{
  "source": "patent US20250041272A1",
  "about": "“COMPOSITIONS AND METHODS FOR TREATING CANCER VIA PTP1B INHIBITION” (priority 2021, published 2025)",
  "molecules": {"B1": {"name": "Gas6: recombinant Gas6, TAM family ligand (R&D systems) (protein, UniProt Q14393 31-678, looked up)", "Growth arrest-specific …": "ALLPAREATQFLRPRQRRAFQVFEEAKQGHLERECVEELCSREEAREVFENDPETDYFYPRYLDCINKYGSPYTKNSGFATCVQNLPDQCTPNPCDRKGTQACQDLMGNFFCLCKAGWGGRLCDKDVNECSQENGGCLQICHNKPGSFHCSCHSGFELSSDGRTCQDIDECADSEACGEARCKNLPGSYSCLCDEGFAYSSQEKACRDVDECLQGRCEQVCVNSPGSYTCHCDGRGGLKLSQDMDTCEDILPCVPFSVAKSVKSLYLGRMFSGTPVIRLRFKRLQPTRLVAEFDFRTFDPEGILLFAGGHQDSTWIVLALRAGRLELQLRYNGVGRVTSSGPVINHGMWQTISVEELARNLVIKVNRDAVMKIAVAGDLFQPERGLYHLNLTVGGIPFHEKDLVQPINPRLDGCMRSWNWLNGEDTTIQETVKVNTRMQCFSVTERGSFYPGSGFAFYSLDYMRTPLDVGTESTWEVEVVAHIRPAADTGVLFALWAPDLRAVPLSVALVDYHSTKKLKKQLVVLAVEHTALALMEIKVCDGQEHVVTVSLRDGEATLEVDGTRGQSEVSAAQLQERLAVLERHLRSPVLTFAGGLPDVPVTSAPVTAFYRGCMTLEVNRRLLDLDEAAYKHSDITAHSCPPVEPAAA"}},
  "key": {"[1]": {"test_system": "MyD88 expression in peritoneal macrophages", "assay": "Individual TLR agonism of macrophages, MyD88 by qRT-PCR", "assay_type": "cell-based, mouse", "settings": "24 hours", "description": "(§1) Peritoneal macrophage isolation and culture. Peritoneal macrophages were done as described previously(65) from 8-week-old C57BL/6J mice (randomized, both male and female). PBS (Gibco) was injected in the mural peritoneal cavity to release the macrophages. After recovering, cells were centrifuged at 1200 rpm for 5 minutes, resuspended in DMEM high glucose, 10% FBS, 1% penicillin-streptomycin (Gibco) and plated. 2 hours after the last step, cells were washed with PBS and maintained in DMEM/F12 supplemented with 10% FBS, 1% penicillin-streptomycin and 20 ng/ml of M-CSF (Prospec) for 2 days. […]"}, "[2]": {"test_system": "Stat1 and MyD88 expression in pro-inflammatory macrophages", "assay": "Stat1 or Jak1/2 inhibitor treatment of pro-inflammatory macrophages, qRT-PCR", "assay_type": "cell-based, mouse", "settings": "Fludarabine 50 μM, Momelotinib 50 nM", "description": "as §1"}, "[3]": {"test_system": "macrophage MyD88 expression", "assay": "Exogenous TAM ligand addition to pro-inflammatory macrophages, MyD88 qRT-PCR", "assay_type": "cell-based, mouse", "settings": "Pros1 1.5 ug/ml, Gas6 200 ng/ml, compared with transwell co-cultured B16F10 cells", "description": "(§2) Peritoneal macrophage isolation and culture. Peritoneal macrophages were done as described previously(65) from 8-week-old C57BL/6J mice (randomized, both male and female). PBS (Gibco) was injected in the mural peritoneal cavity to release the macrophages. After recovering, cells were centrifuged at 1200 rpm for 5 minutes, resuspended in DMEM high glucose, 10% FBS, 1% penicillin-streptomycin (Gibco) and plated. 2 hours after the last step, cells were washed with PBS and maintained in DMEM/F12 supplemented with 10% FBS, 1% penicillin-streptomycin and 20 ng/ml of M-CSF (Prospec) for 2 days. Macrophages were treated for 24 hours with 50 ng/ml LPS (Sigma Millipore), 100 ng/ml IFNγ (BioLegend), 300 ng/ml PAM3CSK4 (InvivoGen), 107 cells/ml heat killed Listeria Monocytogenes (HKLM) (InvivoGen), 100 ng/ml Flagellin Salmonella typhimurium standard (InvivoGen), 10 ng/ml FSL1 (InvivoGen), 2.5 ug/ml ssRNA40 (InvivoGen), 2.5 ug/ml CL 075 (Tocris), 5 μM ODN1826, 50 μM Fludarabine (SelleckChem), 50 nM Momelotinib (SelleckChem), 5 μM BVT948 (Sigma Millipore), 200 μM PTP1b inhibitor III (Santa Cruz Biotechnology Inc.), 5 μM NSC87877 (Santa Cruz Biotechnology Inc.), 50 μM PTP1b inhibitor (Cayman), 1 mM PTP Inhibitor IV (Santa Cruz Biotechnology Inc.), 1 μM TSC401, 300 nM UNC2371 (SelleckChem), 300 nM BMS777607 (SelleckChem), 300 nM LDC1267 (SelleckChem) 1.5 μg/ml recombinant Pros1 (R&D systems), 200 ng/ml recombinant Gas6 (R&D systems) or 10-500 μM Cisplatin (Tocris). All components were added as described in the text. Cell culture. B16F10 (CRL-6475, ATCC), Lewis lung carcinoma (LLC) (CRL-1642, ATCC), KPC2713 (Yuliya Pylayeva-Gupta laboratory, UNC) and MDA-MB-231 (HTB-26, ATCC) were cultured in DMEM high glucose supplemented with 10% FBS, 1% penicillin-streptomycin (Gibco). […]"}, "[4]": {"test_system": "Stat1 phosphorylation and MyD88 in macrophages", "assay": "Transwell co-culture of M1 induced macrophages with tumor cells plus inhibitors (Western blot, qRT-PCR)", "assay_type": "cell-based, mouse", "settings": "24 hours", "description": "as §2"}, "[5]": {"test_system": "macrophage M1 associated gene expression", "assay": "Cisplatin treated transwell co-culture of macrophages and B16F10 cells, qRT-PCR", "assay_type": "cell-based, mouse", "description": "Peritoneal macrophage isolation and culture. Peritoneal macrophages were done as described previously(65) from 8-week-old C57BL/6J mice (randomized, both male and female). PBS (Gibco) was injected in the mural peritoneal cavity to release the macrophages. After recovering, cells were centrifuged at 1200 rpm for 5 minutes, resuspended in DMEM high glucose, 10% FBS, 1% penicillin-streptomycin (Gibco) and plated. 2 hours after the last step, cells were washed with PBS and maintained in DMEM/F12 supplemented with 10% FBS, 1% penicillin-streptomycin and 20 ng/ml of M-CSF (Prospec) for 2 days. Macrophages were treated for 24 hours with 50 ng/ml LPS (Sigma Millipore), 100 ng/ml IFNγ (BioLegend), 300 ng/ml PAM3CSK4 (InvivoGen), 107 cells/ml heat killed Listeria Monocytogenes (HKLM) (InvivoGen), 100 ng/ml Flagellin Salmonella typhimurium standard (InvivoGen), 10 ng/ml FSL1 (InvivoGen), 2.5 ug/ml ssRNA40 (InvivoGen), 2.5 ug/ml CL 075 (Tocris), 5 μM ODN1826, 50 μM Fludarabine (SelleckChem), 50 nM Momelotinib (SelleckChem), 5 μM BVT948 (Sigma Millipore), 200 μM PTP1b inhibitor III (Santa Cruz Biotechnology Inc.), 5 μM NSC87877 (Santa Cruz Biotechnology Inc.), 50 μM PTP1b inhibitor (Cayman), 1 mM PTP Inhibitor IV (Santa Cruz Biotechnology Inc.), 1 μM TSC401, 300 nM UNC2371 (SelleckChem), 300 nM BMS777607 (SelleckChem), 300 nM LDC1267 (SelleckChem) 1.5 μg/ml recombinant Pros1 (R&D systems), 200 ng/ml recombinant Gas6 (R&D systems) or 10-500 μM Cisplatin (Tocris). All components were added as described in the text. Cell culture. B16F10 (CRL-6475, ATCC), Lewis lung carcinoma (LLC) (CRL-1642, ATCC), KPC2713 (Yuliya Pylayeva-Gupta laboratory, UNC) and MDA-MB-231 (HTB-26, ATCC) were cultured in DMEM high glucose supplemented with 10% FBS, 1% penicillin-streptomycin (Gibco). GEMM6 (Dr. Alisha Holtzhausen, UNC), KPPC4662 (Dr. Yuliya Pylayeva-Gupta laboratory, UNC), KPPC4548 (Yuliya Pylayeva-Gupta laboratory, UNC) and E0771 (CRL-3461, ATCC) were maintained in RPMI 1640 supplemented with […], 1% penicillin/streptomycin (Gibco) while PyMT cells were cultured in Ham's F-12K with 10% FBS, 1% penicillin-streptomycin (Gibco). Transwell assays were performed in 0.4 μm polyester membrane insert culture plates (Corning). 500,000 cells of each line were plated per well in DMEM/F12 supplemented with 10% FBS, 1% penicillin-streptomycin and 20 ng/ml of M-CSF for culture with mouse macrophages. SC cells (CRL-9855, ATCC) were cultured in IMDM with 10% FBS and 1% penicillin-streptomycin (Gibco). In transwell experiments with the SC cell line, cancer cells were also resuspended in IMDM media.\nqRT-PCR. RNA was isolated using the RNeasy Plus Mini Kit (Quiagen) and cDNA was prepared using the Reverse Transcription System (Promega) with one-hour reverse transcription process. qRT-PCR was done using the PowerUp™ SYBR™ Green Master Mix (Applied Biosystems) on a QuantStudio Pro Real-time PCR system (Applied Biosystems) with a 95° C. pretreatment of 10 min, 50 cycles of 95° C., 10 sec and 60° C., 1 min and melt curve at the end. Analysis was performed with the 2^−ΔΔCT method(136)."}, "[6]": {"test_system": "B16F10 tumors", "assay": "Subcutaneous B16F10 melanoma tumor model", "assay_type": "in vivo, mouse", "settings": "BVT948 10 mg/kg or Cisplatin 5 mg/kg intraperitoneal, treatment from 50 mm^3", "description": "(§3) Tumor implantation, treatment and harvest. For animal studies, 1*10^5 B16F10 luciferase-tagged melanoma cells, 1*10^6 GEMM6 melanoma cells or 2*10^6 LCC cells were implanted subcutaneously into C57BL/6J mice (randomized, both males and females, 000664 The Jackson laboratory). When indicated, mice received intraperitoneal injections 7 days after implantation with 100 μl of 5 mg/kg cisplatin (Tocris), 100 μl of 10 mg/kg BVT948 (Tocris) or 100 μl of 30 mg/kg of vemurafenib. 5 mice were used per experimental group and tumors were harvested when they reached 1.5 cm in any direction.\n(§4) Immunohistochemistry analysis. Immunohistochemistry assay was carried out in formalin-fixed, paraffin-embedded 4 μm sections using primary antibodies against F4:80 (AbD Serotec), CD11b (Abcam), CD4 (eBioscience) or CD8a (eBioscience) on a Discovery Ultra Automated IHC staining system (Ventana). Sections were then imaged using a ScanScope XT microscope (Aperio) and quantified using Aperio software."}, "[7]": {"test_system": "LLC tumors", "assay": "Subcutaneous LLC tumor model", "assay_type": "in vivo, mouse", "settings": "BVT948 10 mg/kg or Cisplatin 5 mg/kg intraperitoneal, treatment from 50 mm^3", "description": "as §3, §4"}},
  "data": [
    {"molecule": "Pam3CSK4", "values": [
      {"measurement": "MyD88 expression upon individual TLR agonism", "setting": "[1]", "result": "upregulation of MyD88"}
    ]},
    {"molecule": "N#CCNC(=O)c1ccc(-c2ccnc(Nc3ccc(N4CCOCC4)cc3)n2)cc1", "note": "[Momelotinib]", "values": [
      {"measurement": "Stat1 expression", "setting": "[2]", "result": "did not significantly alter"},
      {"measurement": "MyD88 expression", "setting": "[2]; compared with B16F10 transwell co-culture", "result": "did not significantly alter"}
    ]},
    {"molecule": "Pros1: recombinant murine Pros1, TAM family ligand (R&D systems)", "values": [
      {"measurement": "macrophage MyD88 expression after exogenous ligand addition", "setting": "[3]", "result": "reduced comparably to that of tumor cell secretions"},
      {"measurement": "macrophage MyD88 expression after exogenous ligand addition", "setting": "[3]; listed as Recombinant murine Pros1", "result": "suppresses macrophage MyD88 expression similarly to transwell co-culture with B16F10 cells"}
    ]},
    {"molecule": "FSL-1", "values": [
      {"measurement": "MyD88 expression upon individual TLR agonism", "setting": "[1]", "result": "upregulation of MyD88"}
    ]},
    {"molecule": "O=S(=O)(O)c1ccc2cc(N=Nc3cc(S(=O)(=O)O)c4cccnc4c3O)ccc2c1", "note": "[NSC87877]", "values": [
      {"measurement": "Stat1 phosphorylation at Tyrosine 701 and Serine 727", "setting": "[4]", "result": "increased"}
    ]},
    {"molecule": "CCc1oc2cc(S(=O)(=O)Nc3ccc(S(=O)(=O)Nc4nccs4)cc3)ccc2c1C(=O)c1cc(Br)c(O)c(Br)c1", "note": "[PTP inhibitor]", "values": [
      {"measurement": "Stat1 phosphorylation at Tyrosine 701 and Serine 727", "setting": "[4]", "result": "increased"}
    ]},
    {"molecule": "N.N.[Cl][Pt][Cl]", "note": "[Cisplatin]", "values": [
      {"measurement": "activation of Mer deficient macrophages", "setting": "[5]; 25 μM Cisplatin, co-cultured with B16F10 tumor cells, no PTP1b inhibitor", "result": "macrophages could be activated even in the presence of tumor cells"},
      {"measurement": "M1 associated gene expression, Cisplatin alone", "setting": "[5]; even at 500 μM Cisplatin, wildtype macrophages with B16F10 cells", "result": "did not lead to substantially increased M1 associated gene expression"},
      {"measurement": "M1 gene expression in MyD88 knockout macrophages", "setting": "[5]; increasing Cisplatin, with or without BVT948", "result": "Neither increasing concentrations of Cisplatin, nor PTP1 b inhibition, were able to restore M1 gene expression"},
      {"measurement": "B16F10 tumor growth, monotherapy vs vehicle", "setting": "[6]", "result": "did not significantly reduce"},
      {"measurement": "LLC tumor growth reduction, monotherapy", "setting": "[7]", "result": 30, "unit": "%"}
    ]},
    {"molecule": "B1", "values": [
      {"measurement": "macrophage MyD88 expression after exogenous ligand addition", "setting": "[3]", "result": "limited effect"}
    ]}
  ]
}
